Results as given in patent publication US12077503B2, “Substituted cyclic amides and their use as herbicides” (FMC CORPORATION, priority 2015, dated 2024).

Tests used:
Type in all cases: in vivo
[1] = tested on: pigweed (Amaranthus retroflexus); assay: Test A preemergence; conditions: Amaranthus retroflexus, pre-emergence, 240 h; for pest or weed control at 500 g/ha: 500 g ai/ha, preemergence; for pest or weed control at 125 g/ha: Preemergence, 125 g ai/ha
Kochia (Kochia scoparia) [2] = assay: Test A preemergence; conditions: Bassia scoparia, pre-emergence, 240 h; for pest or weed control at 500 g/ha: 500 g ai/ha, preemergence; for pest or weed control at 125 g/ha: Preemergence, 125 g ai/ha
Summary of the method: (§1)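 Visual injury, scored on a 0–100 scale relative to untreated controls, was recorded about 10 d after application. Treatments were a preemergence soil spray over planted seeds or a postemergence spray on plants at the one- to two-leaf stage, 2 to 10 cm tall, all in loam soil–sand blend in the greenhouse.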

[3] = tested on: giant foxtail (Setaria faberii); assay: Test A preemergence; conditions: Setaria faberi, pre-emergence, 240 h; for pest or weed control at 500 g/ha: 500 g ai/ha, preemergence; for pest or weed control at 125 g/ha: Preemergence, 125 g ai/ha
Summary of the method: as §1

[4] = tested on: ragweed (common ragweed, Ambrosia elatior); assay: Test A preemergence; conditions: Ambrosia artemisiifolia, pre-emergence, 240 h; for pest or weed control at 500 g/ha: 500 g ai/ha, preemergence; for pest or weed control at 125 g/ha: Preemergence, 125 g ai/ha
Summary of the method: as §1

[5] = tested on: ryegrass, Italian (Italian ryegrass, Lolium multiflorum); assay: Test A preemergence; conditions: Lolium multiflorum, pre-emergence, 240 h, 0 to 100 scale (0 no effect, 100 complete control), read-out: Plant response rating, Ryegrass, Italian; for pest or weed control at 125 g/ha: Preemergence, 125 g ai/ha
Summary of the method: as §1

[6] = tested on: barnyardgrass (Echinochloa crus-galli); assay: Test A preemergence; conditions: Echinochloa crus-galli, pre-emergence, 240 h; for pest or weed control at 500 g/ha: 500 g ai/ha, preemergence; for pest or weed control at 125 g/ha: Preemergence, 125 g ai/ha
Summary of the method: as §1

[7] = tested on: wheat (Triticum aestivum); assay: Test A postemergence; conditions: Triticum aestivum, post-emergence, 240 h, Postemergence; for plant injury at 125 g/ha: 125 g ai/ha, visual rating about 10 d after treatment, read-out: Wheat plant response rating (0 to 100 scale); for plant injury at 500 g/ha: 500 g ai/ha, visual injury, 0 to 100 scale (0 no effect, 100 complete control), approx. 10 d, read-out: Plant response rating, Wheat
Summary of the method: as §1

[8] = tested on: pigweed (Amaranthus retroflexus); assay: Test A postemergence; conditions: Amaranthus retroflexus, post-emergence, 240 h, Postemergence; for pest or weed control at 125 g/ha: 125 g ai/ha, visual rating about 10 d after treatment, read-out: Pigweed plant response rating (0 to 100 scale); for pest or weed control at 500 g/ha: 500 g ai/ha, visual injury, 0 to 100 scale (0 no effect, 100 complete control), approx. 10 d, read-out: Plant response rating, Pigweed
Summary of the method: as §1

[9] = tested on: blackgrass (Alopecurus myosuroides); assay: Test A postemergence; conditions: Alopecurus myosuroides, post-emergence, 240 h, Postemergence; for pest or weed control at 125 g/ha: 125 g ai/ha, visual rating about 10 d after treatment, read-out: Blackgrass plant response rating (0 to 100 scale); for pest or weed control at 500 g/ha: 500 g ai/ha, visual injury, 0 to 100 scale (0 no effect, 100 complete control), approx. 10 d, read-out: Plant response rating, Blackgrass
Summary of the method: as §1

Kochia (Kochia scoparia) [10] = assay: Test A postemergence; conditions: Bassia scoparia, post-emergence, 240 h, Postemergence; for pest or weed control at 125 g/ha: 125 g ai/ha, visual rating about 10 d after treatment, read-out: Kochia plant response rating (0 to 100 scale); for pest or weed control at 500 g/ha: 500 g ai/ha, visual injury, 0 to 100 scale (0 no effect, 100 complete control), approx. 10 d, read-out: Plant response rating, Kochia
Summary of the method: as §1

[11] = tested on: Galium (catchweed bedstraw, Galium aparine); assay: Test A postemergence; conditions: Galium, post-emergence, 240 h, Postemergence; for pest or weed control at 125 g/ha: 125 g ai/ha, visual rating about 10 d after treatment, read-out: Galium plant response rating (0 to 100 scale); for pest or weed control at 500 g/ha: 500 g ai/ha, visual injury, 0 to 100 scale (0 no effect, 100 complete control), approx. 10 d, read-out: Plant response rating, Galium
Summary of the method: as §1

[12] = tested on: giant foxtail (Setaria faberii); assay: Test A postemergence; conditions: Setaria faberi, post-emergence, 240 h, Postemergence; for pest or weed control at 125 g/ha: 125 g ai/ha, visual rating about 10 d after treatment, read-out: Foxtail, Giant plant response rating (0 to 100 scale); for pest or weed control at 500 g/ha: 500 g ai/ha, visual injury, 0 to 100 scale (0 no effect, 100 complete control), approx. 10 d, read-out: Plant response rating, Foxtail, Giant
Summary of the method: as §1

[13] = tested on: ragweed (common ragweed, Ambrosia elatior); assay: Test A postemergence; conditions: Ambrosia artemisiifolia, post-emergence, 240 h, Postemergence; for pest or weed control at 125 g/ha: 125 g ai/ha, visual rating about 10 d after treatment, read-out: Ragweed plant response rating (0 to 100 scale); for pest or weed control at 500 g/ha: 500 g ai/ha, visual injury, 0 to 100 scale (0 no effect, 100 complete control), approx. 10 d, read-out: Plant response rating, Ragweed
Summary of the method: as §1

[14] = tested on: ryegrass, Italian (Italian ryegrass, Lolium multiflorum); assay: Test A postemergence; conditions: Lolium multiflorum, post-emergence, 240 h, Postemergence; for pest or weed control at 125 g/ha: 125 g ai/ha, visual rating about 10 d after treatment, read-out: Ryegrass, Italian plant response rating (0 to 100 scale); for pest or weed control at 500 g/ha: 500 g ai/ha, visual injury, 0 to 100 scale (0 no effect, 100 complete control), approx. 10 d, read-out: Plant response rating, Ryegrass, Italian
Summary of the method: as §1

corn (Zea mays) = assay: Test A postemergence; conditions: Zea mays, post-emergence, 240 h, Postemergence; for plant injury at 125 g/ha: 125 g ai/ha, visual rating about 10 d after treatment, read-out: Corn plant response rating (0 to 100 scale); for Corn plant response rating (crop injury, 0 = no effect, 100 = complete kill) at 500 g/ha: 500 g ai/ha, visual injury, 0 to 100 scale (0 no effect, 100 complete control), approx. 10 d
Summary of the method: as §1

[15] = tested on: barnyardgrass (Echinochloa crus-galli); assay: Test A postemergence; conditions: Echinochloa crus-galli, post-emergence, 240 h, Postemergence; for pest or weed control at 125 g/ha: 125 g ai/ha, visual rating about 10 d after treatment, read-out: Barnyardgrass plant response rating (0 to 100 scale, 0 no effect, 100 complete control); for pest or weed control at 500 g/ha: 500 g ai/ha, visual injury, 0 to 100 scale (0 no effect, 100 complete control), approx. 10 d, read-out: Plant response rating, Barnyardgrass
Summary of the method: as §1

[16] = 0 to 100 scale (0 no effect, 100 complete control), read-out: Plant response rating, Pigweed
[17] = 0 to 100 scale (0 no effect, 100 complete control), read-out: Plant response rating, Kochia
[18] = 0 to 100 scale (0 no effect, 100 complete control), read-out: Plant response rating, Foxtail, Giant
[19] = 0 to 100 scale (0 no effect, 100 complete control), read-out: Plant response rating, Ragweed
[20] = 0 to 100 scale (0 no effect, 100 complete control), read-out: Plant response rating, Barnyardgrass

Compound	pest or weed control at 125 g/ha [1, 16] [%]	pest or weed control at 125 g/ha (Kochia (Kochia scoparia) [2]; [17]) [%]	pest or weed control at 125 g/ha [3, 18] [%]	pest or weed control at 125 g/ha [4, 19] [%]	pest or weed control at 125 g/ha [5] [%]	pest or weed control at 125 g/ha [6, 20] [%]	plant injury at 125 g/ha [7] [%]	plant injury at 500 g/ha [7] [%]	pest or weed control at 125 g/ha [8] [%]	pest or weed control at 500 g/ha [8] [%]	pest or weed control at 125 g/ha [9] [%]	pest or weed control at 500 g/ha [9] [%]	pest or weed control at 125 g/ha (Kochia (Kochia scoparia) [10]) [%]	pest or weed control at 500 g/ha (Kochia (Kochia scoparia) [10]) [%]	pest or weed control at 125 g/ha [11] [%]	pest or weed control at 500 g/ha [11] [%]	pest or weed control at 125 g/ha [12] [%]	pest or weed control at 500 g/ha [12] [%]	pest or weed control at 125 g/ha [13] [%]	pest or weed control at 500 g/ha [13] [%]	further results
CN1C[C@H](c2ccc3c(c2)CCO3)[C@@H](C(=O)Nc2ccccc2F)C1=O [Compound 1321]	0	50	90	50	0	90	20	50	0	0	30	50	0	50	30	50	90	90	0	20	pest or weed control at 500 g/ha ([1]; 0 to 100 scale where 0 is no effect and 100 is complete control, read-out: Pigweed plant response rating): 0%; pest or weed control at 500 g/ha (Kochia (Kochia scoparia) [2]; 0 to 100 scale where 0 is no effect and 100 is complete control, read-out: Kochia plant response rating): 80%; pest or weed control at 500 g/ha ([3]; 0 to 100 scale where 0 is no effect and 100 is complete control, read-out: Foxtail, Giant plant response rating): 100%; pest or weed control at 500 g/ha ([4]; 0 to 100 scale where 0 is no effect and 100 is complete control, read-out: Ragweed plant response rating): 50%; pest or weed control at 500 g/ha ([6]; 0 to 100 scale where 0 is no effect and 100 is complete control, read-out: Barnyardgrass plant response rating): 100%; pest or weed control at 125 g/ha [14]: 20%; pest or weed control at 500 g/ha [14]: 50%; plant injury at 125 g/ha (corn (Zea mays)): 40%; Corn plant response rating (crop injury, 0 = no effect, 100 = complete kill) at 500 g/ha (corn (Zea mays)): 70%; pest or weed control at 125 g/ha [15]: 90%; pest or weed control at 500 g/ha [15]: 90%
O=C1NC[C@H](c2cncs2)[C@H]1C(=O)Nc1ccccc1F [Compound 1335]	0	0	0	0	0	0	0	0	0	0	0	0	0	0	0	0	0	0	0	0	pest or weed control at 500 g/ha [1, 16]: 0%; pest or weed control at 500 g/ha (Kochia (Kochia scoparia) [2]; [17]): 0%; pest or weed control at 500 g/ha [3, 18]: 0%; pest or weed control at 500 g/ha [4, 19]: 0%; pest or weed control at 500 g/ha ([5]; 500 g ai/ha, preemergence): 0%; pest or weed control at 500 g/ha [6, 20]: 0%; pest or weed control at 125 g/ha [14]: 0%; pest or weed control at 500 g/ha [14]: 0%; plant injury at 125 g/ha (corn (Zea mays)): 0%; Corn plant response rating (crop injury, 0 = no effect, 100 = complete kill) at 500 g/ha (corn (Zea mays)): 0%; pest or weed control at 125 g/ha [15]: 0%; pest or weed control at 500 g/ha [15]: 0%
